Consider one compound from patent publication US11628146B2, “Estrogen receptor ligand treatment for neurodegenerative diseases” (The Regents of the University of California, priority 2014, dated 2023).

In this assay the test system is spinal cords of C57BL/6 females with EAE. Kind of assay: Spinal cord neuropathology (immunohistochemistry) in EAE. The conditions noted are these: vs vehicle treated EAE. Type of assay: in vivo, mouse. How it is done:
Histological Preparation. Mice were exposed to a lethal dose of isoflurane and perfused transcardially with ice-cold 1×PBS for 8-15 min, followed by 10% formalin for 10-15 min. Spinal cords and brains were dissected and submerged in 10% formalin overnight at 4° C., followed by 30% sucrose in PBS for 24 h. Tissues were embedded in […] solution for cryostat sectioning then post-fixed overnight in 10% formalin and cryoprotected in 30% sucrose. The embedded tissues were stored in −80° C. after flash frozen in dry ice. 40 μm thick free-floating spinal cord cross-sections, and sagittal brain sections were obtained with a microtome b cryostat (model HM505E) at −20° C. Tissues were collected serially and stored in 1×PBS with 1% sodium azide in 4° C. until immunohistochemistry.
Immunofluorescence. Prior to histological staining, […] free-floating sections were thoroughly washed with 1×PBS to remove residual sodium azide. In the case of anti-MBP labeling, tissue sections were processed with an additional 1 hour incubation with 5% glacial acetic acid in 100-proof ethanol at room temperature (RT). After washing tissue sections were permeabilized with 0.3% TritonX-100 and 2% normal goat serum in 1×PBS for 30 minutes at room temperature and blocked with 10% normal goat serum in 1×PBS for 1 hour. Tissues were then incubated with primary antibodies overnight in 4° C. The following primary antibody (Ab) were used: Rat anti-MBP (Millipore) at 1:1000 dilutions, Rabbit anti-NF200 (Sigma Aldrich) at 1:750 dilutions, Rabbit anti-beta-APP (Life Technologies) at 1:200 dilutions, Mouse anti-NeuN at 1:1000 dilutions (Millipore), Rabbit anti-PSD95, and Rabbit anti-Synapsin 1 at 1:500 dilutions (Millipore), and Rat anti-CD45 at 1:1500 dilutions (Millipore). The next day tissues were washed and incubated with secondary antibodies conjugated to Cy5 or Cy3 (Millipore) for 1 hour at room temperature. A nuclear stain DAPI (2 ng/mL; Molecular Probes) was added 10 minutes prior to final washes after secondary Ab incubation. Sections were mounted on slides, allowed to semi-dry, and cover slipped in fluoromount G (Fisher Scientific). IgG-control experiments were performed for all primary Ab, and only non-immunoreactive tissues under these conditions were analyzed.
Chromagen Immunohistochemistry. […] Tissues were then incubated with primary antibodies overnight in 4° C. The following primary antibodies were used: Rat anti-CD3 at 1:2000 dilutions (BD Pharmingen), anti-Calbindin D28K at 1:1000 dilutions (Millipore), and Rabbit anti-Iba1 at 1:10000 dilutions (Wako Chemicals), were added for 2 hour at room temperature, and then placed in 4° C. overnight. Tissue sections then followed with secondary Ab labeling at 1:1000 dilutions (Vector labs) for 1 hour at room temperature and then with Avidin-Biotin Conjugation solution (Vector Labs) for 1 hour at room temperature. Tissue sections were treated with DAB peroxidase substrate (Vector labs) according to manufacturer instructions. IgG-control experiments were performed for all primary Ab, and only non-immunoreactive tissues under these conditions were analyzed.
Microscopy and Quantification. Three spinal cord cross-sections at the C5-12 level from each mouse (n=3-6) were captured under microscope at 10× magnification. To quantify demyelination in the spinal cord and cerebellum, white matter was manually delineated on the basis of DAPI staining, and MBP staining intensity was calculated and reported in the sampled area. Axonal damage was assessed by counting beta-APP^+ cells in a confocal 10× microscope in spinal cord. Axonal densities were calculated by counting the number of NF200^+ or NeuN^+ neuronal cells in a 10× confocal image in the sampled area of the captured tissue section. Cerebellar Purkinje (Calbindin^+) cells were manually counted using a brightfield 10× microscope over the entire sagittal cerebellum. […]

The mark [1] stands for this setting: 10 mg/kg every other day in miglyol, EAE day 60.
[2] abbreviates: 30 mg/kg every other day in miglyol.

Molecules are shown by their SMILES. Entries after “also recorded” stand apart in the source; their conditions may differ.

`Oc1ccc(C2(c3ccccc3F)CCC(F)(F)CC2)cc1` [AC-186]: under setting [1], the “Axonal densities / axon numbers (NF200), spinal cord” value is “Neuroprotective effects; also recorded: significantly more axon numbers”; the “Myelin staining intensity (MBP), spinal cord” value is recorded as “a trend for somewhat higher MBP staining intensity”; the “beta-APP expression (axonal damage), spinal cord” value is listed as “Neuroprotective effects; also recorded: a trend of less beta-APP staining”. Where the note is “10 mg/kg in miglyol”, the “CD3 stained cells (T lymphocytes), spinal cord” value is “neither AC-186 dose affected levels of CD3 staining; also recorded: no differences in the number of CD3 stained cells”; the “CD45 immunoreactivity (all immune cells), spinal cord” value is recorded as “reduced CD45 staining; also recorded: a reduction of CD45 expression”; the “Iba-1 globoid cells (macrophage like cells), spinal cord” value was “reduced Iba-1 globoid cell staining; also recorded: a significant reduction in the number of Iba-1 stained cells with globoid morphology”. Further, under setting [2], the “Axonal densities / axon numbers (NF200), spinal cord” value was “significantly preserved axon numbers; also recorded: sparing of axons and myelin; also recorded: significantly more axon numbers”; the “Myelin staining intensity (MBP), spinal cord” value was “a trend for sparing myelin; also recorded: observed as significant; also recorded: a trend for somewhat higher MBP staining intensity”; the “beta-APP expression (axonal damage), spinal cord” value is listed as “reduced axonal damage; also recorded: significantly less expression of beta-APP”. Moreover, under “30 mg/kg in miglyol”, the “CD3 stained cells (T lymphocytes), spinal cord” value is “neither AC-186 dose affected levels of CD3 staining; also recorded: no differences in the number of CD3 stained cells”; the “CD45 immunoreactivity (all immune cells), spinal cord” value was “reduced CD45 staining; also recorded: lowering CD45 and Iba-1; also recorded: a reduction of CD45 expression”; the “Iba-1 globoid cells (macrophage like cells), spinal cord” value was “reduced Iba-1 globoid cell staining; also recorded: lowering CD45 and Iba-1; also recorded: a significant reduction in the number of Iba-1 stained cells with globoid morphology”.
